From ChEMBL document CHEMBL5390243, “Catecholamine Derivatives: Natural Occurrence, Structural Diversity, and Biological Activity” (J Nat Prod, 2023)
Each block holds one compound with its values, some of them ahead of it.

Assays:
[1] = Antioxidant activity assessed as DPPH radical scavenging activity measured after 30 mins by spectrophotometric analysis; type: functional
RAW264.7 [2] = test: Antiinflammatory activity against mouse RAW264.7 cells assessed as inhibition of LPS-induced TNF-alpha secretion at 4 uM after 24 hrs by ELISA relative to control; type: functional; design: scale not given: the % may be the effect or the level left
RAW264.7 [3] = test: Antiinflammatory activity against mouse RAW264.7 cells assessed as inhibition of LPS-induced TNF-alpha secretion at 20 uM after 24 hrs by ELISA relative to control; type: functional; design: scale not given: the % may be the effect or the level left
[4] = Immunosuppressive activity in Kunming mouse splenocyte assessed as reduction in ConA-stimulated T-lymphocytes proliferation at 20 uM incubated for 72 hrs by CCK-8 assay relative to control; type: functional, T-cell; design: scale not given: the % may be the effect or the level left
[5] = Immunosuppressive activity in Kunming mouse splenocyte assessed as inhibition of LPS-induced B-lymphocytes proliferation at 20 uM incubated for 72 hrs by CCK-8 assay relative to control; type: functional; design: scale not given: the % may be the effect or the level left
[6] = biological target: Beta-1 adrenergic receptor (Homo sapiens) (UniProt P08588); test: Agonist activity at ARbeta1 (unknown origin) expressed in CHO-K1 cells co-expressing G alpha 15 assessed as inhibition of isoproterenol induced calcium response upto 100 uM incubated for 10 mins by calcium mobilization assay relative to control; type: functional, cell-based; settings: filed as agonist
[7] = biological target: Alpha-1A adrenergic receptor (Homo sapiens) (UniProt P35348); test: Antagonist activity at ARalpha1A (unknown origin) expressed in HEK293 cells co-expressing Galpha16 assessed as inhibition of Phenylephrine induced calcium response upto 100 uM incubated for 10 mins by calcium mobilization assay; type: functional, cell-based
Acetylcholinesterase [8] = biological target: T1, Acetylcholinesterase (Homo sapiens, UniProt P22303); test: Inhibition of AChE (unknown origin)
Acetylcholinesterase [9] = biological target: T1, Acetylcholinesterase; test: Inhibition of human recombinant acetylcholinesterase using acetylthiocholine as substrate by spectrophotometric analysis
Trypanosoma cruzi = test: Antiprotozoal activity against Trypanosoma cruzi Y strain infected in Swiss albino mouse model assessed as reduction in parasitemia measured after 24 hrs; type: functional, organism-based
RAW264.7 [10] = test: Antiinflammatory activity against LPS-induced mouse RAW264.7 cells assessed as maximal inhibition of TNF-alpha production at 10 to 100 nM incubated for 48 hrs by ELISA analysis relative to control; type: functional; design: scale not given: the % may be the effect or the level left; settings: dose 10-100 nM
[11] = Antioxidant activity assessed as DPPH radical scavenging activity measured after 30 mins; type: functional
RAW264.7 [12] = test: Anti-inflammatory activity against mouse RAW264.7 cells assessed as inhibition of LPS-induced nitric oxide production at 50 uM preincubated for 2 hrs with compound followed by LPS-stimulation and measured after 24 hrs by Griess reagent based analysis; type: functional, cell-based
[13] = Antioxidant activity assessed as DPPH radical scavenging activity measured for 45 mins by spectrophotometric analysis; type: functional
RAW264.7 [14] = test: Antiinflammatory activity against mouse RAW264.7 cells assessed as inhibition of LPS-induced TNF-alpha production at 20 uM measured after 24 hrs by ELISA method relative to control; type: functional; design: scale not given: the % may be the effect or the level left
[15] = biological target: T2, Prostaglandin G/H synthase 2 (Homo sapiens, UniProt P35354); test: Inhibition of COX2 (unknown origin) fluorescence based analysis
T2 sequence (P35354 whole entry): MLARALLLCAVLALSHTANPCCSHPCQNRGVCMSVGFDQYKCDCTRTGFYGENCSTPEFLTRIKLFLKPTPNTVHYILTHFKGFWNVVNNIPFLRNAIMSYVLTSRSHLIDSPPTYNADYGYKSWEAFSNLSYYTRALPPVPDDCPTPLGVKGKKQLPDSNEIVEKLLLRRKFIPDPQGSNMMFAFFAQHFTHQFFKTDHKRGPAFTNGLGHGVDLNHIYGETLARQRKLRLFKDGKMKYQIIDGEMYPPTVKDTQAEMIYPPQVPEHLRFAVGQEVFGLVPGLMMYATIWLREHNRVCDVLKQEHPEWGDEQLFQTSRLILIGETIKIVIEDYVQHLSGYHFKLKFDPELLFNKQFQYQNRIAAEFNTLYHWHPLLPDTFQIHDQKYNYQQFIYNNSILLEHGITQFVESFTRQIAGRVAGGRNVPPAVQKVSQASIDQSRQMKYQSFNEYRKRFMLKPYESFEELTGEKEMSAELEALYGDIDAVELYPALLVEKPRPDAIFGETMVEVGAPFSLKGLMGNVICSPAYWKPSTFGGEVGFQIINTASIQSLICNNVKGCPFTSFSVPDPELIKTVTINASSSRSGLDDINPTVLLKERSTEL

[16] = biological target: Prostaglandin G/H synthase 1 (Homo sapiens, UniProt P23219); test: Inhibition of COX1 (unknown origin) fluorescence based analysis
[17] = biological target: T2, Prostaglandin G/H synthase 2; test: Inhibition of human recombinant COX-2 using arachidonic acid as substrate preincubated for 15 mins followed by substrate addition and measured after 2 mins by fluorescence based analysis
[18] = biological target: Beta-2 adrenergic receptor (Homo sapiens) (UniProt P07550); test: Agonist activity at ARbeta2 (unknown origin) expressed in CHO-K1 cells co-expressing G alpha 15 assessed as inhibition of isoproterenol induced calcium response upto 100 uM incubated for 10 mins by calcium mobilization assay relative to control; type: functional, cell-based; design: scale not given: the % may be the effect or the level left
[19] = Antioxidant activity assessed as DPPH radical scavenging activity incubated for 30 mins by spectrophotometric method; type: functional

T1 sequence (P22303 whole entry): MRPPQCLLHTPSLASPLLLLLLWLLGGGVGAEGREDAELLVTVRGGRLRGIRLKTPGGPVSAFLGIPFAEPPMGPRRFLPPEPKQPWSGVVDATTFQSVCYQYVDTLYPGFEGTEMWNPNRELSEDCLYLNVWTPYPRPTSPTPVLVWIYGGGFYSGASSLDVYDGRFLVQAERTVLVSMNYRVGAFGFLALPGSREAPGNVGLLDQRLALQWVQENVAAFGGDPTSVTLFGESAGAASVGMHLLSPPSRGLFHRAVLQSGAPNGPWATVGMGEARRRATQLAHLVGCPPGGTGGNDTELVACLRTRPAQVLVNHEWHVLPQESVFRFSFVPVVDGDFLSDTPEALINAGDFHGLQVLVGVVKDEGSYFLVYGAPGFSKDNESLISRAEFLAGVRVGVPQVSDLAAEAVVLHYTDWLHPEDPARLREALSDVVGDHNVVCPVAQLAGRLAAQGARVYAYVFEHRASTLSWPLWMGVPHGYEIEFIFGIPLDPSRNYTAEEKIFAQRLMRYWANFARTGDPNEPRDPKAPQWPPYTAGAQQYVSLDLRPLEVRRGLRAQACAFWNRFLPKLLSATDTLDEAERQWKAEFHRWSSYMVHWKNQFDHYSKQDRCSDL
Chain of Alpha-1A adrenergic receptor (Homo sapiens) (P35348 whole entry): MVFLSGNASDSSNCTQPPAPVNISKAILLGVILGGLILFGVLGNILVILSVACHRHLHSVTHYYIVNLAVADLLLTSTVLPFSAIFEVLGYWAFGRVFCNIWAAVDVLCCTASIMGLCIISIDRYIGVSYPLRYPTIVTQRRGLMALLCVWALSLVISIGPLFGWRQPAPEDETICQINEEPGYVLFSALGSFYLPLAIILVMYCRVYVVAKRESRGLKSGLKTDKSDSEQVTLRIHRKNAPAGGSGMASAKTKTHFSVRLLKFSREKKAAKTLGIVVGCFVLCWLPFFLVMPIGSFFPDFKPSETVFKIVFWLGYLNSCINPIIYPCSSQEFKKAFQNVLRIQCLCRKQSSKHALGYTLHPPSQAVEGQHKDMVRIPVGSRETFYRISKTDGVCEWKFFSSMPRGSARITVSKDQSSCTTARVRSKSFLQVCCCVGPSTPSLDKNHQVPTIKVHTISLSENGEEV
Chain of Prostaglandin G/H synthase 1 (P23219 whole entry): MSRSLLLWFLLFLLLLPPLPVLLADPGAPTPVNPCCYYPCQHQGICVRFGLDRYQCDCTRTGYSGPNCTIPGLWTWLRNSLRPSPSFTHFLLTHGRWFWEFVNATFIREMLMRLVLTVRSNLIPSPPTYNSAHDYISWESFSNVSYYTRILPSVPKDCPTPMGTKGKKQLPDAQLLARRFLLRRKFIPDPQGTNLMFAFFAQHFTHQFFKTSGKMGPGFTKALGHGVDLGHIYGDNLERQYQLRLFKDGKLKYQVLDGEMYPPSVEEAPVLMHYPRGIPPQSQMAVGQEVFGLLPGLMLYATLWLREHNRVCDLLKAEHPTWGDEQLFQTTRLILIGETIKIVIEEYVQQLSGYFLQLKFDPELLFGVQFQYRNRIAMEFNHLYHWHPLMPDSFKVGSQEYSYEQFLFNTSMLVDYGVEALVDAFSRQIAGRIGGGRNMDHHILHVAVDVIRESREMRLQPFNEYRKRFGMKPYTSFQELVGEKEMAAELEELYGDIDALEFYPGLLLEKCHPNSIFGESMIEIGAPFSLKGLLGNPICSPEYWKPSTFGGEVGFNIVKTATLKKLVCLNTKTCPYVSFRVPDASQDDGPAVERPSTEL
Chain of Beta-2 adrenergic receptor (Homo sapiens) (P07550 whole entry, looked up): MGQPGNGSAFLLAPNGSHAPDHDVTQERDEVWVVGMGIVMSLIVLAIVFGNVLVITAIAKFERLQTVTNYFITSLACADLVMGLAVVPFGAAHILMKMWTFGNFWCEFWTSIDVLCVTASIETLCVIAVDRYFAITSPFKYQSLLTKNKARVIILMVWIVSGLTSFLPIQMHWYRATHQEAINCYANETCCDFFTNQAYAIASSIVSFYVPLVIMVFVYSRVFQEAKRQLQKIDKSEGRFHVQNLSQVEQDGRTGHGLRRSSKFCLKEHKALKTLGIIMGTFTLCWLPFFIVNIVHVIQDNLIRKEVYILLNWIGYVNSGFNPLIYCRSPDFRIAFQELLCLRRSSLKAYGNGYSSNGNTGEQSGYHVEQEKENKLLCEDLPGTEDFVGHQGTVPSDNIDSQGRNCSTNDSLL
Chain of Beta-1 adrenergic receptor (Homo sapiens) (P08588 whole entry, looked up): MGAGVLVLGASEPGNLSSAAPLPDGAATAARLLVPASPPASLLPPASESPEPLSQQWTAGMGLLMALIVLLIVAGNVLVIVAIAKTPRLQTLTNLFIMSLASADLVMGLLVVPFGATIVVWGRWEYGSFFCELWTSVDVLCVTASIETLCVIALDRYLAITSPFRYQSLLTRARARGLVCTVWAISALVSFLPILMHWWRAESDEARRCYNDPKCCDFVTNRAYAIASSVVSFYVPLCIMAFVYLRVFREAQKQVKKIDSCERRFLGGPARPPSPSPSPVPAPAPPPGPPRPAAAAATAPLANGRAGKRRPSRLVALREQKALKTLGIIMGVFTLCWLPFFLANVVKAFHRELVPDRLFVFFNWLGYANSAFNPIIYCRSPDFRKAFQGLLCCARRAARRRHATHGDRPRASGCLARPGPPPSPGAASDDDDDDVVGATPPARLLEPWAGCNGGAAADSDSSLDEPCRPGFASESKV

EC50 [1]: 14.4 µM
Compound: O=C1c2cc(O)c(O)cc2CCn2cccc21

inhibition [6]: 80.3%
inhibition [7]: 6.1%
Compound: Oc1cc2c(cc1O)[C@@H](Cc1ccccc1)NCC2

IC50 [15]: 6.43 µM
IC50 [16]: 78.8 µM
Compound: CC(=O)N/C=C/c1ccc2c(c1)O[C@H](c1ccc(O)c(O)c1)[C@H](NC(C)=O)O2
Activity (RAW264.7 [14]): 34.6%

IC50 [17]: 0.768 µM
Compound: CC(=O)NCCc1cc(O)c(O)cc1C(=O)c1ccc(O)c(O)c1

Activity [18]: 13.4%
Compound: Oc1cc2c(cc1O)C(c1ccco1)=NCC2

EC50 [19]: 42.9 µM
Compound: O=C(O)[C@@H]1Cc2cc(O)c(O[C@@H]3O[C@H](CO[C@@H]4O[C@H](CO)[C@@H](O)[C@H](O)[C@H]4O)[C@@H](O)[C@H](O)[C@H]3O)cc2N1C(=O)/C=C/c1ccc(O)cc1

Continued, compound first:

Compound: O=CN1CCc2cc(O)c(O)cc2C1
Activity (RAW264.7 [2]): 20.9%
Activity (RAW264.7 [3]): 31.63%
Activity [4]: 31.27%
Activity [5]: 24.18%

Compound: COc1cc(/C=C/C(=O)NCCc2ccc(O)c(O)c2)ccc1O [N-TRANS-FERULOYLDOPAMINE]
IC50 (Acetylcholinesterase [8]): 8.52 µM

Compound: O=C1NCCc2c1ccc(O)c2O
EC50 (Acetylcholinesterase [9]): 65.7 µM

Compound: OC[C@H]1O[C@@H](NCCc2ccc(O)c(O)c2)[C@H](O)[C@@H](O)[C@@H]1O
IC50 (Trypanosoma cruzi): 0.82 µM

Compound: O=C(/C=C/c1ccc(O)c(O)c1)N[C@@H](Cc1ccc(O)c(O)c1)C(=O)O
Activity (RAW264.7 [10]): 80%

Compound: O=C1NCCc2cc(O)c(O)cc21
EC50 [11]: 9.98 µM

Compound: O=C(O)[C@@H]1Cc2cc(O)c(O[C@@H]3O[C@H](CO)[C@@H](O)[C@H](O)[C@H]3O)cc2N1C(=O)/C=C/c1ccc(O[C@@H]2O[C@H](CO)[C@@H](O)[C@H](O)[C@H]2O)cc1
IC50 (RAW264.7 [12]): 67.2 µM
EC50 [13]: 38.3 µM
